We go through one compound from patent publication US12668596B2, “Process for crystallizing nalmefene hydrochloride” (RHODES TECHNOLOGIES, priority 2021, dated 2026).

The structures appear in SMILES notation. Counter-ions that a name gives are not always drawn.

The series can be described thus: Solubility studies of nalmefene HCl monohydrate in aqueous HCl (visual dissolution at 80° C.). The series is classed as physicochemical. As to the method: A series of nalmefene HCl monohydrate solubility experiments were carried out in aqueous HCl. Nalmefene HCl monohydrate (520 mg) was charged to a 4 mL capped vial, followed by solvent (0-6 M HCl, 780 μL, 1.5 volumes) and heated to 80° C. on a pie-block. Increasing amounts of solvent were added periodically until dissolution was achieved (determined visually).
Seven dissolution experiments were carried out.

Regarding `C=C1CC[C@@]2(O)[C@H]3Cc4ccc(O)c5c4[C@@]2(CCN3CC2CC2)[C@H]1O5` [Nalmefene HCl, 17-(cyclopropylmethyl)-4,5α-epoxy-6-methylenemorphinan-3,14-diol], the “Volumes needed to dissolve nalmefene HCl at 80° C.” value was “Fewer than 1.5 Volumes” (Sample No. 0, HCl molarity 0 (water), 520 mg); 1.5 Volumes (Sample No. 1, HCl molarity 1, 520 mg); 2.5 Volumes (Sample No. 2, HCl molarity 2, 520 mg); 6.5 Volumes (Sample No. 3, HCl molarity 3, 520 mg); 6.5 Volumes (Sample No. 4, HCl molarity 4, 520 mg); 4.0 Volumes (Sample No. 5, HCl molarity 5, 520 mg). Also, the “Volumes needed to dissolve nalmefene HCl at 80° C.” value (Sample No. 6, HCl molarity 6, 520 mg) was determined as 3.5 Volumes. Besides, the “HCl molarity at which solubility is at a minimum” value (aqueous HCl 0-6 M) is listed as 3-4 M HCl.
